Experimental data: ChEMBL document CHEMBL1201862, “PubChem BioAssay data set” (2004)
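Dose response: 5 concentrations. Exposure: 48 h. Format: 96-well plates. Endpoint: linear interpolation; highest concentration if not reached. GI50 marks 50% less growth.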 The source made the active and inactive calls. No stated cut-off is given here; in the data, active = GI50 up to about 1.1 µM and inactive = higher.

What was measured:
Experiment in all cases: growth of human tumour cells (NCI), 48 h
SNB-19 = test system: SNB-19
SK-MEL-5 = test system: SK-MEL-5
ACHN = test system: ACHN
EKVX = test system: EKVX
RXF 393 = test system: RXF 393
HL-60 = test system: HL-60
K562 = test system: K562
Malme-3M = test system: Malme-3M
U-251 = test system: U-251
UACC-62 = test system: UACC-62
A498 = test system: A498
OVCAR-4 = test system: OVCAR-4
MCF7 = test system: MCF7
MDA-MB-435 = test system: MDA-MB-435
SK-MEL-28 = test system: SK-MEL-28
SN12C = test system: SN12C
MDA-MB-231 = test system: MDA-MB-231
UACC-257 = test system: UACC-257
NCI-H23 = test system: NCI-H23
NCI-H460 = test system: NCI-H460

Compound	GI50 (SNB-19)	GI50 (SK-MEL-5)	GI50 (ACHN)	GI50 (EKVX)	GI50 (RXF 393)	GI50 (HL-60)	GI50 (K562)	GI50 (Malme-3M)	GI50 (U-251)	GI50 (UACC-62)	GI50 (A498)	GI50 (OVCAR-4)	GI50 (MCF7)	GI50 (MDA-MB-435)	GI50 (SK-MEL-28)	GI50 (SN12C)	GI50 (MDA-MB-231)	GI50 (UACC-257)	GI50 (NCI-H23)	GI50 (NCI-H460)
O=C(O)C(Sc1ccc(Cl)cc1)Sc1ccc(Cl)cc1	40.6 µM (inactive)	35.6 µM (inactive)	47.4 µM (inactive)	31.5 µM (inactive)	> 100 µM (inactive)	33.8 µM (inactive)	33.1 µM (inactive)	71 µM (inactive)	36.4 µM (inactive)	27.7 µM (inactive)	34.8 µM (inactive)	48.4 µM (inactive)	92.3 µM (inactive)	43.1 µM (inactive)	70 µM (inactive)	47 µM (inactive)	66.8 µM (inactive)	44.5 µM (inactive)	44.2 µM (inactive)	34 µM (inactive)
O=C(O)CN1C(=O)CN=C(c2ccccn2)c2cc(Cl)ccc21	> 100 µM (inactive)	> 100 µM (inactive)	> 100 µM (inactive)	> 100 µM (inactive)	> 100 µM (inactive)	4.31 µM (inactive)	> 100 µM (inactive)	> 100 µM (inactive)	> 100 µM (inactive)	> 100 µM (inactive)	> 100 µM (inactive)	> 100 µM (inactive)	> 100 µM (inactive)	> 100 µM (inactive)	> 100 µM (inactive)	> 100 µM (inactive)	> 100 µM (inactive)	> 100 µM (inactive)		> 100 µM (inactive)
COC(C)C(O)(C(=O)OCC1=CCN2CCC(O)C12)C(C)(C)O (configuration not stated)	> 100 µM (inactive)	> 100 µM (inactive)	> 100 µM (inactive)	> 100 µM (inactive)		> 100 µM (inactive)		> 100 µM (inactive)	> 100 µM (inactive)	> 100 µM (inactive)	> 100 µM (inactive)	> 100 µM (inactive)	> 100 µM (inactive)	> 100 µM (inactive)	> 100 µM (inactive)	> 100 µM (inactive)	> 100 µM (inactive)	> 100 µM (inactive)	> 100 µM (inactive)	> 100 µM (inactive)
COc1cc(OC)c2nc3occc3c(OC)c2c1	66.4 µM (inactive)	45.7 µM (inactive)	41.7 µM (inactive)	64.7 µM (inactive)	80 µM (inactive)	94.8 µM (inactive)		> 100 µM (inactive)	> 100 µM (inactive)	> 100 µM (inactive)	> 100 µM (inactive)	37.1 µM (inactive)	> 100 µM (inactive)	> 100 µM (inactive)	> 100 µM (inactive)	71.1 µM (inactive)	> 100 µM (inactive)	> 100 µM (inactive)	> 100 µM (inactive)	78 µM (inactive)
N#Cc1c(N)c2c(c(-c3ccccc3)c1-c1ccccc1)C(=O)N(NC(=O)c1ccccc1)C2=O	58.5 µM (inactive)	68.7 µM (inactive)	> 100 µM (inactive)	> 100 µM (inactive)	60 µM (inactive)	58.2 µM (inactive)	96.8 µM (inactive)	> 100 µM (inactive)	> 100 µM (inactive)	75.9 µM (inactive)	41.9 µM (inactive)	> 100 µM (inactive)	61.2 µM (inactive)	74.3 µM (inactive)	> 100 µM (inactive)	> 100 µM (inactive)	> 100 µM (inactive)	> 100 µM (inactive)		55.1 µM (inactive)
C=Cn1c([N+](=O)[O-])cnc1/C=C/c1ccc(C(=O)OCCN2CCOCC2)cc1	> 100 µM (inactive)	51.9 µM (inactive)	> 100 µM (inactive)	> 100 µM (inactive)	> 100 µM (inactive)		> 100 µM (inactive)	61 µM (inactive)	> 100 µM (inactive)	> 100 µM (inactive)	75.5 µM (inactive)	> 100 µM (inactive)	> 100 µM (inactive)	> 100 µM (inactive)	> 100 µM (inactive)	> 100 µM (inactive)	> 100 µM (inactive)	> 100 µM (inactive)	> 100 µM (inactive)	> 100 µM (inactive)
Cc1ccc(S(=O)(=O)N2CCN3C(=O)c4ccccc4C32c2ccc(F)cc2)cc1 (configuration not stated)	> 100 µM (inactive)	17.7 µM (inactive)	95.1 µM (inactive)	67.8 µM (inactive)	65.2 µM (inactive)		42.4 µM (inactive)	> 100 µM (inactive)	> 100 µM (inactive)	44.9 µM (inactive)	16.2 µM (inactive)	> 100 µM (inactive)	43.4 µM (inactive)	32.8 µM (inactive)	71 µM (inactive)	32.7 µM (inactive)	> 100 µM (inactive)	56 µM (inactive)	97.7 µM (inactive)	67.6 µM (inactive)
CCOC(=O)c1c(SCCCN2CCCCC2)n(-c2ccccc2)c(=S)n(-c2ccccc2)c1=O	16.7 µM (inactive)	16.4 µM (inactive)	20.6 µM (inactive)	27.8 µM (inactive)	18.3 µM (inactive)	2.62 µM (inactive)	5.48 µM (inactive)	16.3 µM (inactive)	16.9 µM (inactive)	4.28 µM (inactive)	20.1 µM (inactive)	17.7 µM (inactive)	12.1 µM (inactive)	15.8 µM (inactive)	17.4 µM (inactive)	16.2 µM (inactive)	19.4 µM (inactive)		18.6 µM (inactive)	
CC(=O)Nc1ccc(N2C(=O)/C(=C\c3cccc(Oc4ccccc4)c3)S(=O)(=O)C2c2ccccc2)cc1 (configuration not stated)	90.2 µM (inactive)	57.5 µM (inactive)	74.1 µM (inactive)	> 100 µM (inactive)	> 100 µM (inactive)	30.3 µM (inactive)	37.3 µM (inactive)	> 100 µM (inactive)	39.3 µM (inactive)	83.2 µM (inactive)	> 100 µM (inactive)	37.8 µM (inactive)	32.2 µM (inactive)	60.8 µM (inactive)	91 µM (inactive)	46.5 µM (inactive)	> 100 µM (inactive)	> 100 µM (inactive)	> 100 µM (inactive)	> 100 µM (inactive)
OB(O)c1ccccc1C#Cc1ccccc1B(O)O	21.8 µM (inactive)	14.8 µM (inactive)	20.7 µM (inactive)	16.9 µM (inactive)	11.3 µM (inactive)	21.4 µM (inactive)	38.3 µM (inactive)	17.1 µM (inactive)	19.2 µM (inactive)	14.5 µM (inactive)	3.04 µM (inactive)		3.13 µM (inactive)	19.7 µM (inactive)	35.6 µM (inactive)	23.6 µM (inactive)	20.8 µM (inactive)	0.55 µM (active)	24 µM (inactive)	14.4 µM (inactive)
C/C=C1\CN2CCC34c5ccccc5N(C)C35OCC4(C(=O)OC)C1CC25 (configuration not stated)	59.8 µM (inactive)	18.4 µM (inactive)	90.4 µM (inactive)	77.1 µM (inactive)		15.2 µM (inactive)	48.9 µM (inactive)		93.3 µM (inactive)	61 µM (inactive)	> 100 µM (inactive)	51.2 µM (inactive)	40.7 µM (inactive)	38.7 µM (inactive)	27.7 µM (inactive)	75.7 µM (inactive)	> 100 µM (inactive)	32.4 µM (inactive)	56.9 µM (inactive)	25.5 µM (inactive)
[N-]=[N+]=CC(=O)CCC(=O)N(c1ccccc1)c1ccccc1	> 10 µM (inactive)	> 10 µM (inactive)	> 10 µM (inactive)	> 10 µM (inactive)	> 10 µM (inactive)	> 10 µM (inactive)	> 10 µM (inactive)	> 10 µM (inactive)	> 10 µM (inactive)		> 10 µM (inactive)		> 10 µM (inactive)	> 10 µM (inactive)	> 10 µM (inactive)	> 10 µM (inactive)	> 10 µM (inactive)	> 10 µM (inactive)	> 10 µM (inactive)	> 10 µM (inactive)
C=C1C(=O)O[C@@H]2[C@H]1C[C@@H](O)[C@H](C)[C@@](O)(C(=O)/C=C/C)[C@H]2OC(=O)C(C)CC (some centres not stated)	> 46.3 µM (inactive)	7.28 µM (inactive)	2.99 µM (inactive)	8.57 µM (inactive)	2.15 µM (inactive)		2.28 µM (inactive)	2 µM (inactive)	11.2 µM (inactive)	15.5 µM (inactive)	18.7 µM (inactive)	6.97 µM (inactive)	4.81 µM (inactive)	3.29 µM (inactive)	7.85 µM (inactive)	2.64 µM (inactive)	5.79 µM (inactive)	3.1 µM (inactive)	5.31 µM (inactive)	28.8 µM (inactive)
CCOC(=O)c1nc2ccccc2nc1NCc1ccc(OC)c(OC)c1		> 100 µM (inactive)	> 100 µM (inactive)	> 100 µM (inactive)	27.8 µM (inactive)	> 100 µM (inactive)	> 100 µM (inactive)	> 100 µM (inactive)	> 100 µM (inactive)	> 100 µM (inactive)	> 100 µM (inactive)	> 100 µM (inactive)	> 100 µM (inactive)	> 100 µM (inactive)	> 100 µM (inactive)	> 100 µM (inactive)	> 100 µM (inactive)	> 100 µM (inactive)	> 100 µM (inactive)	> 100 µM (inactive)
COc1ccc(-c2nnc3nc4ccccc4n3c2O)cc1	> 100 µM (inactive)	> 100 µM (inactive)	> 100 µM (inactive)	> 100 µM (inactive)	7.19 µM (inactive)	> 100 µM (inactive)		> 100 µM (inactive)	90.2 µM (inactive)		> 100 µM (inactive)	> 100 µM (inactive)	> 100 µM (inactive)	> 100 µM (inactive)	> 100 µM (inactive)	> 100 µM (inactive)	31 µM (inactive)	> 100 µM (inactive)	> 100 µM (inactive)	> 100 µM (inactive)
